Measured values: ChEMBL document CHEMBL4196027, “Structure-based discovery of cytotoxic dimeric tetrahydroxanthones as potential topoisomerase I inhibitors from a marine-derived fungus” (Eur J Med Chem, 2018)
The source made the active and inactive calls. The rule behind the calls is not given here.

Legend:
[1] = biological target: T1, DNA topoisomerase 1 (Homo sapiens) (UniProt P11387); assay: Inhibition of DNA topoisomerase-1 (unknown origin) up to 40 uM using supercoiled pBR322 DNA as substrate preincubated with enzyme followed by substrate addition measured after 30 mins by ethidium bromide staining based agarose gel electrophoresis method
T1 sequence (whole entry): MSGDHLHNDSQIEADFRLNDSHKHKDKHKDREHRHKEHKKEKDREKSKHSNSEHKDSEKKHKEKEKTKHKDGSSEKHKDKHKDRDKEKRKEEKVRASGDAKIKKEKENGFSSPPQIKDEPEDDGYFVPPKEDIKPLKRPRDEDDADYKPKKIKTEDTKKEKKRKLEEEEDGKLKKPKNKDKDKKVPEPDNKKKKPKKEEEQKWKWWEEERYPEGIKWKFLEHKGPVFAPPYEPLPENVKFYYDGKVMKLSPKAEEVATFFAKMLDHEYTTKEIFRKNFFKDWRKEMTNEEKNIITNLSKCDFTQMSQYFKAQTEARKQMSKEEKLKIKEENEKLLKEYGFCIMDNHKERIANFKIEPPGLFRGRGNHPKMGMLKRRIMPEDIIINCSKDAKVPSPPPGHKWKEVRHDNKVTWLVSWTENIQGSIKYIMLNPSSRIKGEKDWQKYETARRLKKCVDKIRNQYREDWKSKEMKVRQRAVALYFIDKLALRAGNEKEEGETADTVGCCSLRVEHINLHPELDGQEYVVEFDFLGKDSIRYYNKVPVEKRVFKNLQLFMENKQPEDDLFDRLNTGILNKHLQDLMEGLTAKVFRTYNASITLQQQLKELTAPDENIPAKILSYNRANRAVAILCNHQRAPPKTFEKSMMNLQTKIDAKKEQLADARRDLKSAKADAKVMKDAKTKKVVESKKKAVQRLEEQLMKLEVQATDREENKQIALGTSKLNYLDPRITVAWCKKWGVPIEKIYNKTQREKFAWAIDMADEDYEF

Homo sapiens = organism: Homo sapiens; assay: Inhibition of DNA topoisomerase-2 (unknown origin) at 100 uM using kinetoplast DNA as substrate measured after 30 mins by ethidium bromide staining based agarose gel electrophoresis method
[2] = biological target: T2, Topoisomerase I (Bos taurus) (UniProt Q2HPH0); assay: Inhibition of calf thymus DNA topoisomerase-1-mediated supercoiled pBR322 DNA relaxation assessed as stabilization of enzyme-DNA complex at 100 uM preincubated with enzyme followed by substrate addition measured after 30 mins by ethidium bromide staining based agarose gel electrophoresis method
T2 sequence (whole entry): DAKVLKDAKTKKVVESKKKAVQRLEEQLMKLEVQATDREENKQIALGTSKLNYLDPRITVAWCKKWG

HL-60 = assay: Cytotoxicity against human HL60 cells assessed as reduction in cell proliferation after 48 hrs by MTT assay; format: functional, cell-based
K562 = assay: Cytotoxicity against human K562 cells assessed as reduction in cell proliferation after 48 hrs by MTT assay; format: functional, cell-based
A549 = assay: Cytotoxicity against human A549 cells assessed as reduction in cell proliferation after 48 hrs by MTT assay; format: functional, cell-based
MGC-803 [3] = assay: Cytotoxicity against human MGC803 cells assessed as reduction in cell proliferation after 48 hrs by MTT assay; format: functional, cell-based
[4] = Cytotoxicity against human HO8910 cells assessed as reduction in cell proliferation after 48 hrs by MTT assay; format: functional, cell-based
HCT-116 = assay: Cytotoxicity against human HCT116 cells assessed as reduction in cell proliferation after 48 hrs by MTT assay; format: functional, cell-based
NCI-H1975 = assay: Cytotoxicity against human NCI-H1975 cells assessed as reduction in cell proliferation after 48 hrs by MTT assay; format: functional, cell-based
HEK293 = assay: Cytotoxicity against HEK293 cells assessed as reduction in cell proliferation after 48 hrs by MTT assay; format: cell-based; conditions: Homo sapiens, HEK293, 48 h
[5] = biological target: T1, DNA topoisomerase 1 (Homo sapiens); assay: Inhibition of DNA topoisomerase-1 (unknown origin) using supercoiled pBR322 DNA as substrate preincubated with enzyme followed by substrate addition measured after 30 mins by ethidium bromide staining based agarose gel electrophoresis method
DNA [6] = assay: Inhibition of ethidium bromide binding to Escherichia coli pBR322 DNA at 100 uM after 30 mins by fluorescence assay; format: nucleic-acid assay
DNA [7] = assay: Binding affinity to Escherichia coli pBR322 DNA assessed as red shift by UV-Visible spectrum analysis; format: nucleic-acid assay
DNA [8] = assay: Binding affinity to Escherichia coli pBR322 DNA assessed as hypochromicity by UV-Visible spectrum analysis; format: nucleic-acid assay
[9] = biological target: T1, DNA topoisomerase 1 (Homo sapiens); assay: Inhibition of DNA topoisomerase-1 (unknown origin) at 10 uM using supercoiled pBR322 DNA as substrate preincubated for 1 to 30 mins followed by substrate addition by ethidium bromide staining based agarose gel electrophoresis method; conditions: TDE = time-dependent effect
[10] = biological target: T1, DNA topoisomerase 1 (Homo sapiens); assay: Inhibition of DNA topoisomerase-1 (unknown origin) at 10 uM using supercoiled pBR322 DNA as substrate preincubated for 15 mins followed by substrate addition measured after 30 mins by ethidium bromide staining based agarose gel electrophoresis method
MGC-803 [11] = assay: Cell cycle arrest in human MGC803 cells assessed as accumulation at G2/M phase after 24 hrs by propidium iodide staining based flow cytometry; format: functional
MGC-803 [12] = assay: Induction of necrosis in human MGC803 cells after 24 hrs by Annexin V-FITC/propidium iodide staining based flow cytometry; format: functional, cell-based
MGC-803 [13] = assay: Induction of apoptosis in human MGC803 cells assessed as change in PARP protein expression up to 25 uM after 24 hrs by Western blot analysis; format: functional, cell-based
MGC-803 [14] = assay: Induction of apoptosis in human MGC803 cells assessed as change in procaspase-9 protein expression up to 25 uM after 24 hrs by Western blot analysis; format: functional, cell-based
MGC-803 [15] = assay: Induction of apoptosis in human MGC803 cells up to 25 uM after 48 hrs by Hoechst 33342/propidium iodide staining based flow cytometry; format: functional, cell-based
MGC-803 [16] = assay: Induction of cell membrane permeability in human MGC803 cells up to 50 uM up to 72 hrs by LDH release assay; format: functional, cell-based
[17] = biological target: T2, Topoisomerase I (Bos taurus); conditions: 40 uM
Description: Inhibition of calf thymus DNA topoisomerase-1-mediated supercoiled pBR322 DNA relaxation assessed as stabilization of enzyme-DNA complex at 40 uM preincubated with enzyme followed by substrate addition measured after 30 mins by ethidium bromide staining based agarose gel electrophoresis method

| SMILES | inhibition (Homo sapiens) | inhibition [2] | IC50 (HL-60; Homo sapiens, HL-60, 48 h) [µM] | IC50 (K562; Homo sapiens, K562, 48 h) [µM] | IC50 (A549; Homo sapiens, A549, 48 h) [µM] | IC50 (MGC-803 [3]; Homo sapiens, MGC-803, 48 h) [nM] | IC50 ([4]; Homo sapiens, HO-8910, 48 h) [µM] | IC50 (HCT-116; Homo sapiens, HCT-116, 48 h) [µM] | IC50 (NCI-H1975; Homo sapiens, NCI-H1975, 48 h) [µM] | IC50 (HEK293) [µM] | also measured |
| --- | --- | --- | --- | --- | --- | --- | --- | --- | --- | --- | --- |
| COC(=O)[C@@]12Oc3cc(C)c(-c4ccc5c(c4O)C(=O)C4=C(O)C[C@H](C)[C@@H](O)[C@]4(C(=O)OC)O5)c(O)c3C(=O)C1=C(O)CC[C@H]2O (stereo in doubt; 2) [listing 1 of 2 here] | inactive | Active | – | – | – | – | – | – | – | – | inhibition [1]: Active |
| COC(=O)[C@@]12Oc3ccc(-c4ccc(O)c5c4O[C@]4(C(=O)OC)C(=C(O)C[C@H](C)[C@H]4O)C5=O)c(O)c3C(=O)C1=C(O)C[C@H](C)[C@H]2O | – | – | 0.5 | 1.1 | 1.6 | 1100 | 1.5 | 1.2 | – | – | – |
| COC(=O)c1c(O)c(C)cc(O)c1C(=O)c1c(O)ccc(-c2ccc3c(c2O)C(=O)C2=C(O)C[C@H](C)[C@@H](O)[C@]2(C(=O)OC)O3)c1O | – | – | 27.8 | > 50 | > 50 | – | > 50 | > 50 | > 50 | > 50 | – |
| COC(=O)[C@@]12Oc3cc(C)c(-c4ccc5c(c4O)C(=O)C4=C(O)C[C@H](C)[C@@H](O)[C@]4(C(=O)OC)O5)c(O)c3C(=O)C1=C(O)CC[C@H]2O (stereo in doubt; 2) [listing 2 of 2 here] | – | – | – | – | – | – | – | – | – | – | IC50 (HL-60; hl-60): 6.9 µM; IC50 (K562; k562): 22.1 µM; IC50 (A549; a549): 19.2 µM; IC50 (NCI-H1975; nci-h1975): 5.3 µM; IC50 (MGC-803 [3]; mgc-803): 6200 nM; IC50 [4]: 6.9 µM; IC50 (HCT-116; hct-116): 15.2 µM |
| COC(=O)[C@@]12Oc3cc(C)c(-c4ccc5c(c4O)C(=O)C4=C(O)C[C@H](C)[C@@H](O)[C@]4(C(=O)OC)O5)c(O)c3C(=O)C1=C(O)CC[C@H]2O (stereo in doubt; 1) | inactive | Active | – | – | – | – | – | – | – | – | inhibition [5]: Dose-dependent effect; inhibition (DNA [6]): inactive; Activity (DNA [7]): inactive; Activity (DNA [8]): inactive; inhibition [9]: Tde; inhibition [10]: 100%; Activity (MGC-803 [11]): Dose-dependent effect; Activity (MGC-803 [12]): Dose-dependent effect; Activity (MGC-803 [13]): inactive; Activity (MGC-803 [14]): inactive; Activity (MGC-803 [15]): inactive; Activity (MGC-803 [16]): Active |
| COC(=O)[C@@]12Oc3c(-c4ccc(O)c5c4O[C@]4(C(=O)OC)C(=C(O)C[C@H](C)[C@H]4O)C5=O)ccc(O)c3C(=O)C1=C(O)C[C@H](C)[C@H]2O | – | – | 0.9 | 0.4 | 11.7 | 900 | 1.4 | 0.5 | 3.5 | – | – |
| CC[C@@]1(O)C(=O)OCc2c1cc1n(c2=O)Cc2cc3cc(O)ccc3nc2-1 | – | – | – | – | – | – | – | – | – | – | inhibition [17]: Active |
| COC(=O)[C@@]12Oc3ccc(-c4ccc(O)c5c4O[C@]4(C(=O)OC)C(=C(O)C[C@H](C)[C@H]4O)C5=O)c(O)c3C(=O)C1=C(O)C[C@H](CO)[C@H]2O | – | – | 47.3 | > 50 | > 50 | – | > 50 | > 50 | > 50 | > 50 | – |
| COc1cc(NS(C)(=O)=O)ccc1Nc1c2ccccc2nc2ccccc12 | – | – | – | – | – | – | – | – | – | – | inhibition (DNA [6]): Active |
| COC(=O)[C@@]12Oc3c(-c4ccc5c(c4O)C(=O)C4=C(O)C[C@H](C)[C@@H](O)[C@]4(C(=O)OC)O5)ccc(O)c3C(=O)C1=C(O)C[C@H](CO)[C@H]2O | inactive | Active | 49.5 | > 50 | > 50 | > 50000 | > 50 | > 50 | 49.5 | > 50 | inhibition [1]: Active |
